{
  "source": "patent US20110020837A1",
  "about": "“Method for isolating or identifying a target protein interacting with a lipid in a cell” (Universiteit Utrecht Holding B.V., priority 2009, published 2011)",
  "key": {"[1]": {"experiment": "Stability of terminal alkyne towards UV irradiation, 1H-NMR analysis", "type": "physicochemical", "conditions": "irradiation for 5 minutes"}, "[2]": {"experiment": "UV activation of the photoactivatable diazirine ring, loss of absorption at 349.5 nm", "type": "physicochemical", "conditions": "ethanolic solution, thirty seconds of irradiation, 200 W mercury lamp, filter below 350 nm", "description": "FIG. 9. Panel A, Activation of the photoactivatable diazirine ring was optimized by exposing an ethanolic solution of 10-azi-stearic acid (10-ASA) under the described conditions to UV-light for the indicated time. Absorbance at 349.5 nm was measured to monitor decay of 10-ASA. Panel B, A solution of defatted BSA (1 mg/ml) was irradiated under the same conditions and analyzed by SDS-PAGE.\nSamples were irradiated applying a 200 W high pressure mercury lamp (Oriel Photomax) equipped with a PYREX® glass filter to remove wavelengths below 350 nm. Samples were placed on ice at a distance from 35 cm from the light source. In order to optimize cross-linking conditions we made use of the characteristic absorption of the diazirine group (FIG. 8). An ethanolic solution of 10-azi stearic acid (10-ASA) was irradiated under the conditions described above and the loss of absorption at 349.5 nm was monitored (FIG. 9, Panel A). Thirty seconds of irradiation activated 95% of the photoactivatable group. Samples were UV irradiated for 1 minute. To exclude degradation of proteins under these conditions a 1 mg/ml solution of BSA was irradiated up to 5 minutes and analyzed by gel electrophoresis and subsequent Coomassie staining (FIG. 9, Panel B). […]"}, "[3]": {"target": "defatted bovine serum albumin (BSA) (Bos taurus, UniProt P02769)", "sequence (P02769 25-607)": "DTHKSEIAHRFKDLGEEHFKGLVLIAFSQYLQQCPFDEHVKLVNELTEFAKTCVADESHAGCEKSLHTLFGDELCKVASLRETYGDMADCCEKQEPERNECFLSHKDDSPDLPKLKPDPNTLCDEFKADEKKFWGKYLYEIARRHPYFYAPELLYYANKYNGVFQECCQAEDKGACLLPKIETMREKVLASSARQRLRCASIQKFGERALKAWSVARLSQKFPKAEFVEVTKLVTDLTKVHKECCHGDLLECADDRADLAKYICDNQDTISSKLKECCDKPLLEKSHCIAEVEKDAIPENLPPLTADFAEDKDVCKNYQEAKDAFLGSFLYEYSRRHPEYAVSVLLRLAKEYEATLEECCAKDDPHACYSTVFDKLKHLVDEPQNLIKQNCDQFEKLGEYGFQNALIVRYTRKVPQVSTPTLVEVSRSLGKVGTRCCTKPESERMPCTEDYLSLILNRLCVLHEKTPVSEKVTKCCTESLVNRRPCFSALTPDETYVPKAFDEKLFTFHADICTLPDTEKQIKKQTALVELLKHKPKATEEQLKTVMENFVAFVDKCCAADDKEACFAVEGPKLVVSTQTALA", "experiment": "Photo-affinity labeling of defatted BSA with C15pacFA, click reaction with biotin-azide, Western blot", "type": "binding", "conditions": "incubation with C15pacFA, UV-irradiation and click reaction with biotin-azide", "method": "As a proof-of-concept that C15pacFA can be used to tag proteins with an affinity for fatty acids, defatted bovine serum albumin (BSA) was incubated with C15pacFA and subsequently UV-irradiated. Thereafter, the mixture was subjected to a click reaction, applying biotin-azide (see FIG. 5). […] CuSO4 serves as a source for Cu(I) that is required for the catalytic cycle of the [3+2] cyclo-addition and was formed in situ by the addition of the reducing agent TCEP.\nSamples were irradiated applying a 200 W high pressure mercury lamp (Oriel Photomax) equipped with a PYREX® glass filter to remove wavelengths below 350 nm. Samples were placed on ice at a distance from 35 cm from the light source. […] Samples were UV irradiated for 1 minute. […]"}, "lysozyme": {"target": "lysozyme (Gallus gallus, UniProt P00698)", "sequence (P00698 19-147)": "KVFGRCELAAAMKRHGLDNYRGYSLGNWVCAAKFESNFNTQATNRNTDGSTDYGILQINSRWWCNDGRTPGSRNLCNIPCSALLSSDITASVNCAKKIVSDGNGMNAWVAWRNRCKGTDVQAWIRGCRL", "experiment": "Photo-affinity labeling of lysozyme with C15pacFA (specificity control), click reaction with biotin-azide, Western blot", "type": "binding", "conditions": "same conditions as BSA; protein known not to interact with lipids", "description": "FIG. 5. Panel A, Proof-of-concept for the specific interaction of pacFA with a fatty acid binding protein. An ethanolic solution of C15pacFA was added to a solution of defatted-BSA or lysozyme in PBS as described above. After incubating for 1 hour at room temperature samples were UV-irradiated and 20 μl were subjected to click reaction with biotin-azide. Samples were analyzed by SDS-PAGE, followed by Western blotting and detection via NeutrAvidin coupled to horse radish peroxidase. Panel B, SDS-PAGE and subsequent staining with Coomassie brilliant blue.\nSerum albumin binds and transports fatty acids. As a proof-of-concept that C15pacFA can be used to tag proteins with an affinity for fatty acids, defatted bovine serum albumin (BSA) was incubated with C15pacFA and subsequently UV-irradiated. […]\nSamples were irradiated applying a 200 W high pressure mercury lamp (Oriel Photomax) equipped with a PYREX® glass filter to remove wavelengths below 350 nm. […] An ethanolic solution of 10-azi stearic acid (10-ASA) was irradiated under the conditions described above and the loss of absorption at 349.5 nm was monitored (FIG. 9, Panel A). […] To exclude degradation of proteins under these conditions a 1 mg/ml solution of BSA was irradiated up to 5 minutes and analyzed by gel electrophoresis and subsequent Coomassie staining (FIG. 9, Panel B). […]"}, "CHO-CGalT cells [4]": {"system": "CHO-CGalT cells", "experiment": "Incorporation of pacFAs into cellular lipids, lipid extracts analysed by nano-ESI-MS/MS", "type": "cell-based", "conditions": "100 μM, 16 hours", "description": "FIGS. 7A and 7B. Mass spectrometric analysis of photoactivatable and clickable PC species. CHO-CGaIT cells (−5×10^7 cells) were labeled for 16 hours in delipidated medium in the absence (upper panel) or presence (lower panel) of 100 μM (FIG. 7A) C15pacFA or (FIG. 7B) C16pacFA. Lipids were extracted, dried and subsequently dissolved in 5 mM ammonium acetate in MeOH and subjected to nano-ESI-MS/MS. Shown are PREC184 spectra visualizing choline phosphate-containing lipids. Abbreviations give the total number of carbon atoms of fatty acids attached and the numbers of double bonds within the fatty acid. Transparent bars highlight PC species containing the pacFAs.\nGiven the small size of fatty acids, additional functional groups might have an impact on their physical properties. Due to the rigidity of the triple bond pacFAs are slightly kinked in the end and their overall length is shorter compared with their corresponding natural counterparts. […] Phosphatidylcholine (PC) is the major lipid class in eukaryotic cells. To analyze choline phosphate containing species, a precursor ion scanning procedure was employed selecting for fragments with a mass of 184 Da. […] UV irradiation of the lipid extracts gave rise to peaks with a mass 28 Da lower than the corresponding pacPC species due to the release of nitrogen followed by either an α-hydrogen migration or an intramolecular crosslink of the carbene (data not shown).^[4] […] SM16:0 is the major SM species in CHO cells. Its biosynthesis requires two palmitoyl-CoA: (i) as a precursor of the sphingoid backbone and (ii) for its N-acylation. The length of the N-acylated fatty acid is strictly controlled since there is no SM14:0 and only a minor amount of SM18:0 in CHO cells.^[5] Therefore, we assumed that the chain length of C15pacFA might interfere with its incorporation into SM. […]\nLipids were extracted according to Bligh and Dyer and analyzed as described previously (K. Retra, O. B. Bleijerveld, R. A. van Gestel, A. G. Tielens, J. J. van Hellemond, J. F. Brouwers, Rapid Commun. Mass Spectrom. 2008, 22, 1853.^[20]"}, "CHO-CGalT cells [5]": {"system": "CHO-CGalT cells", "experiment": "Morphology of cells after labeling with pacFAs", "type": "cell-based", "conditions": "cells labeled with pacFA"}, "[6]": {"system": "membrane and cytosolic proteins of CHO-CGalT cells", "experiment": "In vivo labeling of cells with C15pacFA, alexa488-azide click of membranes and cytosol, SDS-PAGE in-gel fluorescence", "type": "cell-based", "conditions": "membranes and cytosol after UV irradiation", "description": "FIG. 2. In vivo labeling of proteins interacting with lipids. CHO-CGalT cells were labeled with and without 100 μM C15pacFA for 16 hours. Where indicated, cells were UV irradiated. Total membranes were separated from cytosol. The cytosolic proteins were precipitated by CHCl3/MeOH precipitation and total membranes as well as the cytosolic precipitate were subjected to click reaction conditions using alexa488-azide or biotin-azide. Panel A, Proteins labeled with alexa488-azide were separated by SDS-PAGE and analyzed by in-gel fluorescence. […] The lanes were cut into ten gel pieces as indicated and analyzed by mass spectrometry as described herein. […]\nIn order to see whether pacFAs can be used to investigate protein-lipid interactions in vivo, we administered C15pacFA to cells. […] Both membranes and cytosol were subjected to click reaction conditions and samples were analyzed by SDS-PAGE and in-gel fluorescence (FIG. 2). […] 208 proteins were identified that were exclusively detected upon labeling cells with C15pacFA (FIG. 2, Panel D, lane III). […] Proteins that were exclusively detected upon labeling with C15pacFA and subsequent cross-linking (lane IV) are given in Table 2. […]"}, "HeLa cells": {"system": "HeLa cells", "experiment": "Cell imaging of bifunctional lipids: UV fixation, lipid extraction, alexa-azide click, fluorescent microscopy", "type": "cell-based", "conditions": "UV irradiated versus non-irradiated, non-crosslinked lipids extracted", "description": "Microscopy of lipids requires a fluorescent tag on the lipid. In contrast to polyene lipids, most fluorescent tags interfere with the properties of thus labeled lipids.^[24] […] Lipids are highly dynamic and their chemical fixation remained difficult. […] To this end, C15pacFA was administered to cells. Lipids were fixed in vivo by UV-irradiation followed by the fixation of cells with methanol. In order to remove non-protein-crosslinked lipids, cells were extracted according to Bligh and Dyer.^[27] Samples were subjected to click reactions with alexa-azide and lipids were visualized by fluorescent microscopy.\nHeLa cells grown on cover slips in a 24-well plate were labeled for 1 hour in 0.5 ml DMEM 4.5 g/liter glucose supplemented with 10% delipidated FCS and 100 μM C15pacFA. The cells were washed with 0.5 mL PBS, overlaid with 0.5 mL PBS and UV irradiated on ice for 2 minutes. After UV irradiation the cells were fixed with 0.5 mL of −20° C. cold MeOH for 10 minutes. After fixation cells were subjected to one, two or three rounds of lipid extraction according to Bligh and Dyer using 0.5 ml of CHCl3/MeOH/AcOH 10:55:0.75 v/v for each extraction (for each extraction coverslips were incubated for 1 minute at room temperature). The coverslips were washed with 0.5 mL PBS and then subjected to click reactions. […]"}},
  "data": [
    {"smiles": "C#CCc1ccccc1", "note": "[3-phenyl-1-propyne]", "values": [
      {"measurement": "stability towards UV irradiation", "setting": "[1]", "value": "stability of alkynes towards UV irradiation"}
    ]},
    {"smiles": "CCCCCCCCC1(CCCCCCCCC(=O)O)N=N1", "note": "[10-ASA, 10-azi-stearic acid]", "values": [
      {"measurement": "activation of the photoactivatable group", "setting": "[2]", "value": 95, "unit": "%"}
    ]},
    {"smiles": "C#CCCCC1(CCCCCCCCC(=O)O)N=N1", "note": "[C15pacFA, 9-(3-pent-4-ynyl-3-H-diazirin-3-yl)-nonanoic acid]", "values": [
      {"measurement": "labeling of BSA", "setting": "[3]", "value": "BSA could be labeled"},
      {"measurement": "labeling of lysozyme", "setting": "lysozyme", "value": "no labeling of lysozyme was observed"},
      {"measurement": "incorporation into sphingomyelin (SM)", "setting": "CHO-CGalT cells [4]", "value": "No significant incorporation"},
      {"measurement": "incorporation into phosphatidylcholine (pacPC species)", "setting": "CHO-CGalT cells [4]; precursor ion scan 184 Da", "value": "led to additional peaks corresponding to pacPC species"},
      {"measurement": "morphological differences after labeling", "setting": "CHO-CGalT cells [5]", "value": "No morphological differences were observed"},
      {"measurement": "proteins labeled by photo-affinity labeling (in-gel fluorescence)", "setting": "[6]", "value": "not only membrane proteins were labeled by means of photo-affinity labeling but also cytosolic proteins"},
      {"measurement": "fluorescent structures after click reaction with alexa-azide", "setting": "HeLa cells", "value": "Fluorescent structures were only visible in the UV irradiated samples"}
    ]},
    {"smiles": "C#CCCCC1(CCCCCCCCC(=O)O)N=N1", "note": "[C16pacFA, 9-(3-Pent-4-ynyl-3-H-diazirin-3-yl)-nonanoic acid]", "values": [
      {"measurement": "incorporation into sphingomyelin (SM)", "setting": "CHO-CGalT cells [4]", "value": "no incorporation"},
      {"measurement": "morphological differences after labeling", "setting": "CHO-CGalT cells [5]", "value": "No morphological differences were observed"}
    ]}
  ]
}
